In US20170050957A1, “4-AMINO-6-(HETEROCYCLIC)PICOLINATES AND 6-AMINO-2-(HETEROCYCLIC)PYRIMIDINE-4-CARBOXYLATES AND THEIR USE AS HERBICIDES” (Dow AgroSciences LLC, priority 2013, published 2017):
Read-outs that look alike come from different tables or passages of the source.

Legend:
[1] = system: Key Broadleaf Weed and Crop Species; assay: Post-emergent Test II herbicidal activity (Table 15); assay type: in vivo; settings: post-emergence, 336 h, 14 d; for pest or weed control at 35 g/ha: 35 g ai/ha; for pest or weed control at 70 g/ha: 70 g ai/ha; for pest or weed control at 140 g/ha: 140 g ai/ha
In short: (§1)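 Herbicidal effect scored as percent visual injury, 14 d after post-emergent application. Spray solutions contained acetone, DMSO, isopropyl alcohol, crop oil concentrate and surfactant, applied at 187 L/ha to young plants (1-2 true leaves).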

[2] = system: Key Grass and Sedge Weeds as well as Grass Crops; assay: Post-emergent Test II herbicidal activity (Table 16); assay type: in vivo; settings: post-emergence, 336 h, 14 d; for pest or weed control at 35 g/ha: 35 g ai/ha; for pest or weed control at 70 g/ha: 70 g ai/ha; for pest or weed control at 140 g/ha: 140 g ai/ha
In short: as §1

[3] = Abutilon theophrasti, velvetleaf (Abutilon theophrasti), read-out: Visual Growth Reduction (%) 14 Days After Application, ABUTH
[4] = Amaranthus retroflexus, redroot pigweed (Amaranthus retroflexus), read-out: Visual Growth Reduction (%) 14 Days After Application, AMARE
[5] = Brassica napus, oilseed rape, canola (Brassica napus), read-out: Visual Growth Reduction (%) 14 Days After Application, BRSNN
[6] = Chenopodium album, lambsquarters (Chenopodium album), read-out: Visual Growth Reduction (%) 14 Days After Application, CHEAL
[7] = Euphorbia heterophylla, wild poinsettia (Euphorbia heterophylla), read-out: Visual Growth Reduction (%) 14 Days After Application, EPHHL
[8] = Helianthus annuus, sunflower (Helianthus annuus), read-out: Visual Growth Reduction (%) 14 Days After Application, HELAN
[9] = Cyperus esculentus, yellow nutsedge (Cyperus esculentus), read-out: Visual Growth Reduction (%) 14 Days After Application, CYPES
[10] = Echinochloa crus-galli, barnyardgrass (Echinochloa crus-galli), read-out: Visual Growth Reduction (%) 14 Days After Application, ECHCG
[11] = Oryza sativa, rice (Oryza sativa), read-out: Visual Growth Reduction (%) 14 Days After Application, ORYSA
[12] = Setaria faberi, giant foxtail (Setaria faberi), read-out: Visual Growth Reduction (%) 14 Days After Application, SETFA
[13] = Triticum aestivum, wheat, spring (Triticum aestivum), read-out: Visual Growth Reduction (%) 14 Days After Application, TRZAS
[14] = Zea mays, maize, corn (Zea mays), read-out: Visual Growth Reduction (%) 14 Days After Application, ZEAMX

Row | SMILES | pest or weed control at 35 g/ha [1, 3] [%] | pest or weed control at 70 g/ha [1, 3] [%] | pest or weed control at 140 g/ha [1, 3] [%] | pest or weed control at 35 g/ha [1, 4] [%] | pest or weed control at 70 g/ha [1, 4] [%] | pest or weed control at 140 g/ha [1, 4] [%] | pest or weed control at 35 g/ha [1, 5] [%] | pest or weed control at 70 g/ha [1, 5] [%] | pest or weed control at 140 g/ha [1, 5] [%] | pest or weed control at 35 g/ha [1, 6] [%] | pest or weed control at 70 g/ha [1, 6] [%] | pest or weed control at 140 g/ha [1, 6] [%] | pest or weed control at 35 g/ha [1, 7] [%] | pest or weed control at 70 g/ha [1, 7] [%] | pest or weed control at 140 g/ha [1, 7] [%] | pest or weed control at 35 g/ha [1, 8] [%] | pest or weed control at 70 g/ha [1, 8] [%] | pest or weed control at 140 g/ha [1, 8] [%] | pest or weed control at 35 g/ha [2, 9] [%] | pest or weed control at 70 g/ha [2, 9] [%] | also measured
1 | COC(=O)c1nc(-c2cc3occc3cc2F)cc(N)c1Cl [Compound 2.12] | 85 to 94 | 95 to 100 | 95 to 100 | 95 to 100 | 95 to 100 | 95 to 100 | 75 to 84 | 85 to 94 | 95 to 100 | 95 to 100 | 95 to 100 | 95 to 100 | 95 to 100 | 95 to 100 | 95 to 100 | 30 to 44 | 60 to 74 | 60 to 74 | 0 to 29 | 0 to 29 | melting point: 130 °C; pest or weed control at 140 g/ha [2, 9]: 0 to 29%; pest or weed control at 35 g/ha [2, 10]: 95 to 100%; pest or weed control at 70 g/ha [2, 10]: 95 to 100%; pest or weed control at 140 g/ha [2, 10]: 95 to 100%; pest or weed control at 35 g/ha [2, 11]: 0 to 29%; pest or weed control at 70 g/ha [2, 11]: 0 to 29%; pest or weed control at 140 g/ha [2, 11]: 0 to 29%; pest or weed control at 35 g/ha [2, 12]: 45 to 59%; pest or weed control at 70 g/ha [2, 12]: 60 to 74%; pest or weed control at 140 g/ha [2, 12]: 60 to 74%; pest or weed control at 35 g/ha [2, 13]: 0 to 29%; pest or weed control at 70 g/ha [2, 13]: 0 to 29%; pest or weed control at 140 g/ha [2, 13]: 0 to 29%; pest or weed control at 35 g/ha [2, 14]: 0 to 29%; pest or weed control at 70 g/ha [2, 14]: 30 to 44%; pest or weed control at 140 g/ha [2, 14]: 60 to 74%
2 | COC(=O)c1nc(-c2ccc(Cl)c3[nH]ccc23)c(F)c(N)c1Cl [Compound 1.43] | 0 to 29 | 0 to 29 | 60 to 74 | 95 to 100 | 95 to 100 | 95 to 100 | 0 to 29 | 0 to 29 | 0 to 29 | 75 to 84 | 85 to 94 | 85 to 94 | 0 to 29 | 0 to 29 | 30 to 44 | 60 to 74 | 75 to 84 | 75 to 84 | 0 to 29 | 0 to 29 | pest or weed control at 140 g/ha [2, 9]: 0 to 29%; pest or weed control at 35 g/ha [2, 10]: 0 to 29%; pest or weed control at 70 g/ha [2, 10]: 0 to 29%; pest or weed control at 140 g/ha [2, 10]: 0 to 29%; pest or weed control at 35 g/ha [2, 11]: 0 to 29%; pest or weed control at 70 g/ha [2, 11]: 0 to 29%; pest or weed control at 140 g/ha [2, 11]: 0 to 29%; pest or weed control at 35 g/ha [2, 12]: 0 to 29%; pest or weed control at 70 g/ha [2, 12]: 0 to 29%; pest or weed control at 140 g/ha [2, 12]: 0 to 29%; pest or weed control at 35 g/ha [2, 13]: 0 to 29%; pest or weed control at 70 g/ha [2, 13]: 0 to 29%; pest or weed control at 140 g/ha [2, 13]: 0 to 29%; pest or weed control at 35 g/ha [2, 14]: 0 to 29%; pest or weed control at 70 g/ha [2, 14]: 0 to 29%; pest or weed control at 140 g/ha [2, 14]: 0 to 29%
3 | Nc1c(F)c(-c2cc3[nH]ccc3cc2F)nc(C(=O)O)c1Cl [Compound 1.14] | 0 to 29 | 0 to 29 | 0 to 29 | 75 to 84 | 85 to 94 | 85 to 94 | 45 to 59 | 60 to 74 | 75 to 84 | 60 to 74 | 60 to 74 | 75 to 84 | 0 to 29 | 0 to 29 | 60 to 74 | 60 to 74 | 75 to 84 | 75 to 84 | 0 to 29 | 0 to 29 | pest or weed control at 140 g/ha [2, 9]: 0 to 29%; pest or weed control at 35 g/ha [2, 10]: 0 to 29%; pest or weed control at 70 g/ha [2, 10]: 0 to 29%; pest or weed control at 140 g/ha [2, 10]: 0 to 29%; pest or weed control at 35 g/ha [2, 11]: 0 to 29%; pest or weed control at 70 g/ha [2, 11]: 0 to 29%; pest or weed control at 140 g/ha [2, 11]: 0 to 29%; pest or weed control at 35 g/ha [2, 12]: 0 to 29%; pest or weed control at 70 g/ha [2, 12]: 0 to 29%; pest or weed control at 140 g/ha [2, 12]: 0 to 29%; pest or weed control at 35 g/ha [2, 13]: 0 to 29%; pest or weed control at 70 g/ha [2, 13]: 0 to 29%; pest or weed control at 140 g/ha [2, 13]: 0 to 29%; pest or weed control at 35 g/ha [2, 14]: 0 to 29%; pest or weed control at 70 g/ha [2, 14]: 0 to 29%; pest or weed control at 140 g/ha [2, 14]: 0 to 29%
